These compounds were tested against T1, human A2a receptor (Homo sapiens, UniProt P29274) (assay: A2a receptor competition binding assay (Scintillation Proximity)). Details: membranes from HEK293 cells expressing human A2a receptor; 0.5 nM tritiated ligand; Cheng-Prusoff; read-out: A2a Ki.
T1 construct: purchased Perkin-Elmer RBHA2AM400UA; host or cells: HEK293 cells, used as a membrane preparation
Method in brief: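 HEK293 membranes bearing the human receptor, pretreated with adenosine deaminase, competed against 0.5 nM tritiated pyrazolotriazolopyrimidine antagonist with compound at 3000–0.15 nM final in DPBS plus 10 mM MgCl2. SPA bead readout after 1 h at room temperature; Ki from EC50 via Cheng-Prusoff.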

T1 sequence (P29274 whole entry): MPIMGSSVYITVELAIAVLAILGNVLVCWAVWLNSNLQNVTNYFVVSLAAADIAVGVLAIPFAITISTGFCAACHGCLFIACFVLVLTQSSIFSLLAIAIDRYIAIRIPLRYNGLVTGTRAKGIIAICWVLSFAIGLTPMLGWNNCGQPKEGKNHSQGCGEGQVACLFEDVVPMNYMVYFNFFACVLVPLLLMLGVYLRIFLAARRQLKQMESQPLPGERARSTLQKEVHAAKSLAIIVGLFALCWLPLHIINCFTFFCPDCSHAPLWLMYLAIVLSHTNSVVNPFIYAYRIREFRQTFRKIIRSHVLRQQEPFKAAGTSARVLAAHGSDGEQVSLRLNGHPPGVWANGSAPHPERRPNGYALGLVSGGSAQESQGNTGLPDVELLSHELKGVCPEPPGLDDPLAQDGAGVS

| Ki [nM] | Structure (SMILES) |
| --- | --- |
| 29 | CC(C)(C)OC(=O)N1CCC2(CCN(C(=O)c3cn4c(N)nc5c(F)cccc5c4n3)C2)C1 (stereo not shown) [Ex-259, tert-butyl 7-(5-amino-7-fluoroimidazo[1,2-c]quinazoline-2-carbonyl)-2,7-diazaspiro[4.4]nonane-2-carboxylate] |
| 23 | COc1cccc2c1nc(N)n1cc(C(=O)N3CCCC(CO)C3)nc21 (stereo not shown) [Ex-191, (5-amino-7-methoxyimidazo[1,2-c]quinazolin-2-yl)(3-(hydroxymethyl)piperidin-1-yl)methanone] |
| 4.6 | COc1cccc2c1nc(N)n1cc(Cc3ccc(N4CCN(C(C)=O)CC4)nc3)nc21 [Ex-45, 1-(4-(5-((5-amino-7-methoxyimidazo[1,2-c]quinazolin-2-yl)methyl)pyridin-2-yl)piperazin-1-yl)ethan-1-one] |
| 8.1 | Nc1nc2c(F)cccc2c2nc(CN3CCCc4cc(Br)ccc43)cn12 [Ex-125, 2-((6-bromo-3,4-dihydroquinolin-1(2H)-yl)methyl)-7-fluoroimidazo[1,2-c]quinazolin-5-amine] |
| 9.2 | COc1cccc2c1nc(N)n1cc(CN3Cc4ccc(F)cc4C3)nc21 [Ex-123, 2-((5-fluoroisoindolin-2-yl)methyl)-7-methoxyimidazo[1,2-c]quinazolin-5-amine] |
| 21 | COc1ccc(C(=O)N2CCC(Cc3cn4c(N)nc5c(F)cccc5c4n3)CC2)nc1 [Ex-327, (4-((5-amino-7-fluoroimidazo[1,2-c]quinazolin-2-yl)-methyl)piperidin-1-yl)(5-methoxypyridin-2-yl)methanone] |
| 1.6 | COc1cccc2c1nc(N)n1cc(Cc3ccccc3N3CCCC3)nc21 [Ex-29, 7-methoxy-2-(2-(pyrrolidin-1-yl)benzyl)imidazo[1,2-c]quinazolin-5-amine] |
| > 2200 | CCn1cc(-c2cccc3c2nc(N)n2cc(CN(C)Cc4cccc(Cl)c4)nc32)cn1 [Ex-151, 2-(((3-chlorobenzyl)-(methyl)amino)-methyl)-7-(1-ethyl-1H-pyrazol-4-yl)imidazo[1,2-c]-quinazolin-5-amine] |
| 640 | Nc1nc2c(F)cccc2c2nc(C(=O)N3CCc4cc(-c5ccc(F)c(F)c5)ccc4C3)cn12 [Ex-289, (5-amino-7-fluoroimidazo[1,2-c]quinazolin-2-yl)(6-(3,4-difluorophenyl)-3,4-dihydroisoquinolin-2(1H)-yl)methanone] |
| 13 | COc1cccc2c1nc(N)n1cc(C(=O)N3CCC(C)CC3)nc21 [Ex-193, (5-amino-7-methoxyimidazo[1,2-c]quinazolin-2-yl)(4-methylpiperidin-1-yl)methanone] |
| 90 | COc1cccc2c1nc(N)n1cc(C(=O)N3CCOC[C@@H]3C)nc21 [Ex-184, (S)-(5-amino-7-methoxyimidazo[1,2-c]quinazolin-2-yl)(3-methylmorpholino) methanone] |
| 6.2 | Nc1nc2c(OC(F)(F)F)cccc2c2nc(Cc3ccccc3)cn12 [Ex-10, 2-benzyl-7-(trifluoromethoxy)imidazo[1,2-c]quinazolin-5-amine] |
| 24 | COc1cccc2c1nc(N)n1cc(C(=O)N3CCC4OCCC43)nc21 (stereo not shown) [Ex-220, (5-amino-7-methoxyimidazo[1,2-c]quinazolin-2-yl)(hexahydro-4H-furo[3,2-b]pyrrol-4-yl)methanone] |
| 23.9 | COc1cccc2c1nc(N)n1cc(Cc3cccnc3N3CCN(C)CC3)nc21 [Ex-51, 7-methoxy-2-((2-(4-methylpiperazin-1-yl)pyridin-3-yl)methyl)imidazo[1,2-c]quinazolin-5-amine] |
| 4.6 | COc1cccc2c1nc(N)n1cc(C(=O)N3CCCC4(CCC4)C3)nc21 [Ex-200, (5-amino-7-methoxyimidazo[1,2-c]quinazolin-2-yl)(6-azaspiro[3.5]nonan-6-yl)methanone] |
| 3 | CC(=O)N1CCc2ccc(Cc3cn4c(N)nc5c(F)cccc5c4n3)cc2C1 [Ex-48, 1-(7-((5-amino-7-fluoroimidazo[1,2-c]quinazolin-2-yl)methyl)-3,4-dihydroisoquinolin-2(1H)-yl)ethan-1-one] |
